The source of these data is ChEMBL document CHEMBL3774329, “Synthesis and Evaluation of Oxyguanidine Analogues of the Cysteine Protease Inhibitor WRR-483 against Cruzain” (ACS Med Chem Lett, 2016).

As usually defined, the EC50 is the midpoint of the concentration-response curve. The low end stands for an effect from little substance, the high end for a need for much substance.

Data set [1] addresses Cruzipain (Trypanosoma cruzi) (UniProt P25779). Nature of the data set: Ratio of Kinact/Ki at pH 8 to Kinact/Ki at pH 5.5 for inhibition of His-tagged recombinant Trypanosoma cruzi cruzain.
The target is the same in data set [2]. Nature of the data set: Inhibition of His-tagged recombinant Trypanosoma cruzi cruzain using Z-Phe-Arg-AMC as substrate assessed as ratio of Kinact to Ki preincubated for 5 mins at pH 8 by spectrofluorometric analysis.
The target in a further data set is Cytochrome P450 2D6 (Homo sapiens, UniProt P10635). The experiment in a line: Inhibition of CYP2D6 in human liver microsomes at 1 to 10 uM after 10 mins in presence of NADPH. Type of data set: ADME. For orientation: Microsomes from liver hold many membrane-bound enzymes, among them those of drug oxidation.
Chain of Cytochrome P450 2D6 (P10635 whole entry): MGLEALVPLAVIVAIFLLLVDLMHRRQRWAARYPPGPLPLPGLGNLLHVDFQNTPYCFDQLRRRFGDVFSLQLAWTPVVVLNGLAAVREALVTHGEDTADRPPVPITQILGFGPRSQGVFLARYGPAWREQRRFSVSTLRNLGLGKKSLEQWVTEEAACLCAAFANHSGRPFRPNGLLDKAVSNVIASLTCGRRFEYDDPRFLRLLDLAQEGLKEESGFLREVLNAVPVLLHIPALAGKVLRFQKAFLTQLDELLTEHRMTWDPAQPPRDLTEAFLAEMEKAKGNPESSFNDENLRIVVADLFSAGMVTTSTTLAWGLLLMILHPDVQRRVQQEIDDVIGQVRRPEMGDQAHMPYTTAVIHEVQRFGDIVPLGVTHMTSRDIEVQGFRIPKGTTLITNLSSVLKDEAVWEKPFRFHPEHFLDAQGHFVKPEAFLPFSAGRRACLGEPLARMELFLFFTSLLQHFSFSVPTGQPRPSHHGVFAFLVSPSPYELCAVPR
Data set [3] has as its target Cruzipain (Trypanosoma cruzi) (UniProt P25779). Nature of the data set: Inhibition of His-tagged recombinant Trypanosoma cruzi cruzain using Z-Phe-Arg-AMC as substrate assessed as ratio of Kinact to Ki preincubated for 5 mins at pH 5.5 by spectrofluorometric analysis.
For another data set, the system named is Trypanosoma cruzi. The experiment in a line: Antiparasitic activity against Trypanosoma cruzi CA-I/72 trypomastigote infected in mouse C2C12 cells after 72 hrs by DAPI-staining based microscopic analysis. The note with it: CA-I/72, C2C12, 72 h. It is filed as functional, organism-based.
Data set [4] has as its system Rattus norvegicus. The experiment in a line: Drug level in Sprague-Dawley rat treated with WRR-668 at 3 mg/kg, iv over 8 hrs by LC-MS/MS analysis. It is filed as ADME, organism-based. The note with it: in vivo.
In data set [5] the target is Cruzipain (Trypanosoma cruzi) (UniProt P25779). Nature of the data set: Ratio of Kinact/Ki at pH 5.5 to Kinact/Ki at pH 8 for inhibition of His-tagged recombinant Trypanosoma cruzi cruzain.
Chain of Cruzipain (Trypanosoma cruzi) (P25779 123-467 limits assumed): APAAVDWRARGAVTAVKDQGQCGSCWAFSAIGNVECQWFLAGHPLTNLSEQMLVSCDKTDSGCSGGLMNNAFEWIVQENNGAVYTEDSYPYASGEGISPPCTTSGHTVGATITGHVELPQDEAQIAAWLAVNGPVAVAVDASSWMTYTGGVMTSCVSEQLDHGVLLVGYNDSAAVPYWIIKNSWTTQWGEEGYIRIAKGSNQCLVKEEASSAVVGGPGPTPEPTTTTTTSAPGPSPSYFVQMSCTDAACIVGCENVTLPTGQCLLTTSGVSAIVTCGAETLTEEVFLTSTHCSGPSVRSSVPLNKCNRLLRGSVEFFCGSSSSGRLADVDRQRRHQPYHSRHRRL
Data set [6] deals with T1, Cysteine proteinase 1 (Entamoeba histolytica) (UniProt Q01957).
T1 sequence (whole entry): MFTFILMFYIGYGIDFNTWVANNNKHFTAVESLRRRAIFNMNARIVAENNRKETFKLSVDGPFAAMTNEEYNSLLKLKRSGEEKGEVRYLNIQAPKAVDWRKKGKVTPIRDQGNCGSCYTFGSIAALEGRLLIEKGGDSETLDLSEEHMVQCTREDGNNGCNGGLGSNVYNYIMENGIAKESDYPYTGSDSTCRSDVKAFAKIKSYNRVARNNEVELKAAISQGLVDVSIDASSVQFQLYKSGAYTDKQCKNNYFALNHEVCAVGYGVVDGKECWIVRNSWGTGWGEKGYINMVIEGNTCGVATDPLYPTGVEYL
Nature of the data set: Inhibition of Entamoeba histolytica cysteine protease1 using ZRR-AMC peptide as substrate assessed as release of AMC at 250 pM to 1 uM incubated for 15 mins by fluorometric analysis.

A short description of data set [7]: Stability of compound in mouse liver microsomes at 1 uM measured at 5 to 60 mins in presence of NADPH by LC-MS/MS analysis. It is filed as ADME.
Data set [8] relates to Rattus norvegicus. The experiment in a line: Drug metabolism in Sprague-Dawley rat assessed as WRR-671 formation at 3 mg/kg, iv over 8 hrs by LC-MS/MS analysis. The note with it: in vivo. It is filed as ADME, organism-based.
The test system of data set [9] is Liver microsome. Nature of the data set: Stability of compound in rat liver microsomes at 1 uM measured at 5 to 60 mins in presence of NADPH by LC-MS/MS analysis. It is filed as ADME.
For data set [10], the system named is Liver microsome. Nature of the data set: Stability of compound in human liver microsomes at 1 uM measured at 5 to 60 mins in presence of NADPH by LC-MS/MS analysis. Type of data set: ADME.
The next data set concerns Plasma. The experiment in a line: Drug degradation in C57BL/6 mouse plasma assessed as proteolytic cleavage in presence of EDTA by LC-MS/MS analysis. It is filed as ADME, cell-free.
The target of another data set is Cytochrome P450 2C9 (Homo sapiens, UniProt P11712). Nature of the data set: Inhibition of CYP2C9 in human liver microsomes at 1 to 10 uM after 10 mins in presence of NADPH. Type of data set: ADME.
Chain of Cytochrome P450 2C9 (P11712 whole entry): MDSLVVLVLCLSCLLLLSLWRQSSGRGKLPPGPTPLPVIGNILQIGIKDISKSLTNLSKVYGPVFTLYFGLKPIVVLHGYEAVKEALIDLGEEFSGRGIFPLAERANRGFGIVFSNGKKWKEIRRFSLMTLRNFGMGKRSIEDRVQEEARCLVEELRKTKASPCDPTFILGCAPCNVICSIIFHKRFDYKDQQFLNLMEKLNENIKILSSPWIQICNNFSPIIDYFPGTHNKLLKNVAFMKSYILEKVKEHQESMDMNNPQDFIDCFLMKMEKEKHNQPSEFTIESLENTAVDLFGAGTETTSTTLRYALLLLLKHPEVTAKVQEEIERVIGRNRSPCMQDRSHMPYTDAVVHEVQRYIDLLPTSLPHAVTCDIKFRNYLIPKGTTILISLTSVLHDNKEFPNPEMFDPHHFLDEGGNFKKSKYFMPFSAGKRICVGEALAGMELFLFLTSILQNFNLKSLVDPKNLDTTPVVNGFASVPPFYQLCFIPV

Structures are written as SMILES. Activity calls are given as the source filed them. The calls are words filed in the database; no cut-off is given here.

On to `CONC(=N)NCCC[C@H](NC(=O)N1CCN(C)CC1)C(=O)N[C@H](/C=C/S(=O)(=O)c1ccccc1)CCc1ccccc1`, for which the Ratio in [1] is above 3; in data set [2], 65700 M⁻¹ s⁻¹; in [3], 9100 M⁻¹ s⁻¹. Also, on Cytochrome P450 2D6, the “inhibition (INH)” value is given as “Active”. In the data set on Trypanosoma cruzi, this compound gave a 50% effective concentration (EC50) of 0.269 µM.
Consider `CN1CCN(C(=O)N[C@@H](CCCO)C(=O)N[C@H](/C=C/S(=O)(=O)c2ccccc2)CCc2ccccc2)CC1`, for which the Drug metabolism result in the data set on Rattus norvegicus [4] is “metabolite_detected”.
In the case of `CN1CCN(C(=O)N[C@@H](Cc2ccccc2)C(=O)N[C@H](/C=C/S(=O)(=O)c2ccccc2)CCc2ccccc2)CC1`, the Ratio in [5] was above 5; in data set [2], 32500 M⁻¹ s⁻¹; in data set [3], 158000 M⁻¹ s⁻¹.
Turning to `CN1CCN(C(=O)N[C@@H](CCCNC(=N)N)C(=O)N[C@H](/C=C/S(=O)(=O)c2ccccc2)CCc2ccccc2)CC1`, the Ratio in data set [1] is above 3; in [2], 113000 M⁻¹ s⁻¹; in data set [3], 36600 M⁻¹ s⁻¹.
For `CN1CCN(C(=O)N[C@@H](CCCONC(=N)N)C(=O)N[C@H](/C=C/S(=O)(=O)c2ccccc2)CCc2ccccc2)CC1.Cl.Cl`, the Ratio in data set [2] came to 53400 M⁻¹ s⁻¹; in [3], 43300 M⁻¹ s⁻¹. For the same compound, the “inhibition (INH)” value on Cytochrome P450 2D6 is “Active”.
Consider `CN1CCN(C(=O)N[C@@H](CCCONC(=N)N)C(=O)N[C@H](/C=C/S(=O)(=O)c2ncccn2)CCc2ccccc2)CC1`, for which the results for the Ratio in data set [5], in [2] and in data set [3] were above 5, 1500 M⁻¹ s⁻¹ and 320000 M⁻¹ s⁻¹, respectively.
`CN1CCN(C(=O)N[C@@H](CCCNC(=N)N)C(=O)N[C@H](/C=C/S(=O)(=O)c2ccccn2)CCc2ccccc2)CC1`: the Ratio in data set [2] came to 3100 M⁻¹ s⁻¹; in data set [3], 8100 M⁻¹ s⁻¹. In addition, the inhibition result in data set [6] was “Active”.
As to `CN1CCN(C(=O)N[C@@H](CCONC(=N)N)C(=O)N[C@H](/C=C/S(=O)(=O)c2ccccc2)CCc2ccccc2)CC1`, the Ratio in data set [2] was 138000 M⁻¹ s⁻¹; in [3], 93100 M⁻¹ s⁻¹.
With `CN1CCN(C(=O)N[C@@H](CCCONC(=N)N)C(=O)N[C@H](/C=C/S(=O)(=O)c2ccccn2)CCc2ccccc2)CC1`, the Ratio amounted to 308000 M⁻¹ s⁻¹ in data set [2] and 214000 M⁻¹ s⁻¹ in data set [3]. In addition, the “inhibition (INH)” value at Cytochrome P450 2D6 is on record as “Active”. The Stability result (in data set [7]; with Liver microsome [9]; in the data set with Liver microsome [10]) was “Stable” in each case. Further, the inhibition result in data set [6] is “Active”. Moreover, the Drug metabolism result in the data set on Rattus norvegicus [8] is reported as “metabolite_detected”.
With `CN1CCN(C(=O)N[C@@H](CCCCNC(=N)N)C(=O)N[C@H](/C=C/S(=O)(=O)c2ccccc2)CCc2ccccc2)CC1`, the Ratio is above 3 in data set [1], 59700 M⁻¹ s⁻¹ in [2] and 11000 M⁻¹ s⁻¹ in data set [3].
Turning to `CONC(=N)NCCC[C@H](NC(=O)N1CCN(C)CC1)C(=O)N[C@H](/C=C/S(=O)(=O)c1ccccn1)CCc1ccccc1`, the Ratio in [1] was above 3; in data set [2], 1.17e+06 M⁻¹ s⁻¹; in [3] it was 25000 M⁻¹ s⁻¹. Moreover, the Stability entry in the data set on Plasma was “Unstable”; in data set [7], “Stable”; in the data set with Liver microsome [9], “Stable”; in the data set on Liver microsome [10], “Stable”. Also, the “inhibition (INH)” value at Cytochrome P450 2D6 and at Cytochrome P450 2C9 was “Active” in each case. Moreover, the inhibition entry in [6] was “Active”.
